# Tested on: Wnt pathway
# Assay: Wnt pathway Super-top flash (STF) reporter gene assay (primary assay)
# Assay type: cell-based
# Details: HEK293 STF cells co-cultured 1:1 with L Wnt3A cells; 48 h incubation; inhibition of luminescence signaling
# Description: The primary assay is based on Wnt pathway Super-top flash (STF) reporter gene assay:
# HEK293 STF stable clones (HEK293 cells stably transfected with “Super-Top Flash” TCF-luciferase reporter plasmid) were kept in complete culture medium (DMEM with 4 mM L-Gln, 1.5 g/L sodium bicarbonate and 4.5 g/L glucose containing 6 μg/mL Blasticidin and 10% FBS). L Wnt3A cells (CRL-2647, ATCC) were kept in DMEM (Gibico) containing 10% FBS (Hyclone). HEK293 STF and L Wnt3A cells were harvested when 90% confluence and cell suspension was mixed with a fixed ratio of 1:1 (HEK293 STF: L Wnt3A). 100 μL/well of mixed cells suspension was added to the 96-well-plate with final cell concentration of 12,000 cells/well and then cultured for an additional 24 hours before adding compounds.
# Compounds were diluted in DMSO in sequence and then diluted with DMEM medium. 20 μL medium containing compound was added to the cells according to the pre-setting dose. Cell plates were incubated at 37° C. for an additional 48 hours.
# 50 μL luciferase solution (Bright-Glo, Promega) was added to each well […] the 48 h incubation. The plates were incubated at room temperature for 5 min under gentle shaking. Luminescence signaling was measured with a plate reader (PHERAstar FS, BMG). The IC50 (potency) of compounds was calculated based on the inhibition of luminescence signaling.
row,IC50 [nM],SMILES
1,147,Cc1cc(-c2ccc(CNc3ncnc(N4CCc5ccccc5C4C)c3F)cc2)ccn1 (stereo not drawn) [Compound A-70]
2,0.29,N#Cc1cnc2cc(CNc3ncnc(-c4ccc5ncccc5c4)c3F)ccc2c1 [Compound A-71]
3,0.64,N#Cc1cnc2cc(CNc3ncnc(N4CCc5ncccc5C4)c3F)ccc2c1 [Compound A-72]
4,1.6,N#Cc1ccc2nc(CNc3ncnc(N4CCc5ncccc5C4)c3F)ccc2c1 [Compound A-74]
5,0.52,N#Cc1ccc2cc(CNc3ncnc(-c4ccc5ncccc5c4)c3F)cnc2c1 [Compound A-75]
6,1.3,N#Cc1ccc2cc(CNc3ncnc(N4CCc5ncccc5C4)c3F)cnc2c1 [Compound A-76]
7,1.6,Fc1c(NCc2ccc(-c3ccncn3)cc2)ncnc1-c1ccc2ncccc2c1 [Compound A-77]
8,416,Cc1cc(-c2ncc(CNc3ncnc(N4CCS(=O)(=O)CC4)c3F)cc2F)ccn1 [Compound A-79]
9,768,Cc1cc(-c2ncc(CNc3ncnc(N4CCNC(=O)C4)c3F)cc2F)ccn1 [Compound A-80]
10,625,Cc1cc(-c2ncc(CNc3ncnc(NCC4CC4)c3F)cc2F)ccn1 [Compound A-81]
11,338,Cc1cc(-c2ncc(CNc3ncnc(NCc4cccnc4)c3F)cc2F)ccn1 [Compound A-82]
12,3000,Cn1nc(CNc2ncnc(-c3ccc4ncccc4c3)c2F)ccc1=O [Compound A-83]
13,0.26,COc1cc(CNc2ncnc(-c3cc4cccnc4cn3)c2F)cnc1-c1ccnc(C)c1 [Compound A-84]
14,0.14,"Cc1cc(-c2ncc(CNc3ncnc(-c4cc5cccnc5cn4)c3F)cc2F)ccn1 [Compound A-85, 5-fluoro-N-((3-fluoro-2′-methyl-2,4′-bipyridin-5-yl)methyl)-6-(1,7-naphthyridin-6-yl)pyrimidin-4-amine]"
15,0.34,Cc1cc(-c2ncc(CNc3ncnc(-c4cc5cccnc5cn4)c3F)cc2C#N)ccn1 [Compound A-86]
16,0.51,Cc1cc(-c2ncc(CNc3ncnc(N4CCn5nccc5C4)c3F)cc2F)ccn1 [Compound A-87]
17,7.7,Cc1cc(-c2ncc(CNc3ncnc(N4Cc5cccnc5C4)c3F)cc2F)ccn1 [Compound A-88]
18,14,Cc1cc(-c2ncc(CNc3ncnc(N4CCOc5ncccc5C4)c3F)cc2F)ccn1 [Compound A-89]
19,1.2,Cc1cc(-c2ncc(CNc3ncnc(N4CCc5nccnc5C4)c3F)cc2F)ccn1 [Compound A-90]
20,53,Cc1cc(-c2ncc(CNc3ncnc(N4CCn5nnnc5C4)c3F)cc2C#N)ccn1 [Compound A-91]
21,10,Cc1cc(-c2ncc(CNc3ncnc(N4CCn5nncc5C4)c3F)cc2C#N)ccn1 [Compound A-92]
22,40,Cc1cc(-c2ncc(CNc3ncnc(N4CCn5nnnc5C4)c3F)cc2F)ccn1 [Compound A-93]
23,0.8,COc1cc(CNc2ncnc(N3CCn4nccc4C3)c2F)cnc1-c1ccnc(C)c1 [Compound A-94]

row,IC50 [nM],SMILES
1,15,Cc1cc(-c2ncc(CNc3ncnc(N4CCn5nncc5C4)c3F)cc2F)ccn1 [Compound A-95]
2,0.2,Cc1cc(-c2ncc(CNc3nccc(-c4ccn5nccc5n4)c3F)cc2C#N)ccn1 [Compound A-96]
3,0.18,Cc1cc(-c2ccc(CNc3nccc(-c4ccc5ncccc5c4)c3F)cc2)ccn1 [Compound A-97]
4,0.06,Cc1cc(-c2ncc(CNc3nccc(-c4ccc5ncccc5c4)c3F)cc2F)ccn1 [Compound A-98]
5,0.11,Cc1cc(-c2ncc(CNc3nccc(-c4ccc5ncccc5c4)c3F)cc2C#N)ccn1 [Compound A-99]
6,0.27,Cc1cc(-c2ncc(CNc3nccc(-c4ccc5ncccc5c4)c3F)cn2)ccn1 [Compound A-100]
7,0.31,Cc1cc(-c2ccc(CNc3nccc(-c4ccc5ncccc5c4)c3F)cn2)ccn1 [Compound A-101]
8,0.54,Cc1cc(-c2ccc(C(C)Nc3nccc(-c4ccc5ncccc5c4)c3F)cc2)ccn1 (stereo not drawn) [Compound A-102]
9,0.12,Cc1cc(-c2ncc(CNc3nccc(-c4cc5cccnc5cn4)c3F)cc2F)ccn1 [Compound A-103]
10,0.11,Fc1c(-c2ccc3ncccc3c2)ccnc1NCc1ccc(-c2ccncc2)cc1 [Compound A-104]
11,5.2,Fc1c(-c2ccc3ncccc3c2)ccnc1NCc1ccc(-n2ccnc2)cc1 [Compound A-105]
12,0.24,COc1cc(CNc2nccc(-c3ccc4ncccc4c3)c2F)cnc1-c1ccnc(C)c1 [Compound A-106]
13,16,Cc1cn(-c2ccc(CNc3nccc(-c4ccc5ncccc5c4)c3F)cc2)cn1 [Compound A-107]
14,1,Cc1cc(-c2ncc(CNc3nccc(-c4ccc5ncccc5n4)c3F)cc2F)ccn1 [Compound A-108]
15,10,N#Cc1ccc2nc(CNc3nccc(-c4ccc5ncccc5c4)c3F)ccc2c1 [Compound A-109]
16,1,Cc1cc(-c2ncc(CNc3nccc(-c4ccc5nnccc5c4)c3F)cc2F)ccn1 [Compound A-110]
17,10,O=S1(=O)CCN(c2ccc(CNc3nccc(-c4ccc5ncccc5c4)c3F)cn2)CC1 [Compound A-111]
18,10,CS(=O)(=O)CCNc1ccc(CNc2nccc(-c3ccc4ncccc4c3)c2F)cn1 [Compound A-112]
19,16,Cn1nccc1-c1ccc(CNc2nccc(-c3ccc4ncccc4c3)c2F)cc1 [Compound A-113]
20,8,Cc1cc(-c2ncc(CNc3nccc(-c4ccc5nonc5c4)c3F)cc2F)ccn1 [Compound A-114]
21,7,Cc1cc(-c2ncc(CNc3nccc(-c4cncc(F)c4)c3F)cc2F)ccn1 [Compound A-115]
22,8,Cc1cc(-c2ncc(CNc3nccc(-c4cncc(Cl)c4)c3F)cc2F)ccn1 [Compound A-116]
23,2,Cc1cc(-c2ncc(CNc3nccc(-c4ccc(=O)n(C)c4)c3F)cc2F)ccn1 [Compound A-117]

row,IC50 [nM],SMILES
1,318,N#Cc1cnc2cc(CNc3nccc(-c4ccc5ncccc5c4)c3F)ccc2c1 [Compound A-118]
2,10,N#Cc1ccc2cc(CNc3nccc(-c4ccc5ncccc5c4)c3F)cnc2c1 [Compound A-119]
3,12,N#Cc1ccc(NCCNc2nccc(-c3ccc4ncccc4c3)c2F)nc1 [Compound A-120]
4,0.06,"Cc1cc(-c2ncc(CNc3nccc(-c4cc5cccnc5cn4)c3F)cc2C#N)ccn1 [Compound A-121, 5-((3-fluoro-4-(1,7-naphthyridin-6-yl)pyridin-2-ylamino)methyl)-2′-methyl-2,4′-bipyridine-3-carbonitrile]"
5,0.13,COc1cc(CNc2nccc(-c3cc4cccnc4cn3)c2F)cnc1-c1ccnc(C)c1 [Compound A-122]
6,0.12,Cc1cc(-c2ncc(CNc3nccc(-c4ccc5ncnn5c4)c3F)cc2F)ccn1 [Compound A-123]
7,0.12,Cc1cc(-c2ncc(CNc3nccc(-c4ccc5nccnc5c4)c3F)cc2F)ccn1 [Compound A-124]
8,0.06,COc1cc(CNc2nccc(-c3ccc4ncccc4n3)c2F)cnc1-c1ccnc(C)c1 [Compound A-125]
9,0.04,Cc1cc(-c2ncc(CNc3nccc(-c4ccc5ncccc5n4)c3F)cc2C#N)ccn1 [Compound A-126]
10,0.34,Cc1cc(-c2ccnc(NCc3cnc(-c4ccnc(C)c4)c(C#N)c3)c2F)ccn1 [Compound A-127]
11,1.8,Cc1cc(-c2ncc(CNc3nccc(-c4cnn(C)c4)c3F)cc2C#N)ccn1 [Compound A-128]
12,0.4,COc1cncc(-c2ccnc(NCc3cnc(-c4ccnc(C)c4)c(C#N)c3)c2F)c1 [Compound A-129]
13,0.11,Cc1cc(-c2ncc(CNc3nccc(-c4cncc(Cl)c4)c3F)cc2C#N)ccn1 [Compound A-130]
14,1,Cc1cc(-c2ncc(CNc3nccc(-c4cncc(C#N)c4)c3F)cc2C#N)ccn1 [Compound A-131]
15,0.25,Cc1cncc(-c2ccnc(NCc3cnc(-c4ccnc(C)c4)c(C#N)c3)c2F)c1 [Compound A-132]
16,34,Cc1cc(-c2ccc(CNc3cc(N4CCc5ccccc5C4)ncn3)cc2)ccn1 [Compound A-133]
17,24,Cc1cc(-c2ccc(CNc3cc(-c4ccc5ccccc5c4)ncn3)cc2)ccn1 [Compound A-134]
18,3000,Cc1cc(-c2ccc(CNc3cc(Cl)nc(N4CCc5ccccc5C4)n3)cc2)ccn1 [Compound A-135]
19,4000,Cc1cc(-c2ccc(CNc3cc(N4CCCC4)nc(N4CCc5ccccc5C4)n3)cc2)ccn1 [Compound A-136]
20,3000,"CSc1ncc2c(n1)CCN(c1cc(NCc3ccc(-c4ccnc(C)c4)cc3)ncn1)C2=O [Compound A-137, 6-(6-(4-(2-methylpyridin-4-yl)benzylamino)pyrimidin-4-yl)-2-(methylthio)-7,8-dihydropyrido[4,3-d]pyrimidin-5(6H)-one]"
21,712,"CNc1ncc2c(n1)CCN(c1cc(NCc3ccc(-c4ccnc(C)c4)cc3)ncn1)C2=O [Compound A-138, 2-(methylamino)-6-(6-(4-(2-methylpyridin-4-yl)benzylamino)pyrimidin-4-yl)-7,8-dihydropyrido[4,3-d]pyrimidin-5(6H)-one]"
22,3000,Cc1cc(-c2ccc(CNc3cc(-c4ccc5ccccc5c4)nc(C)n3)cc2)ccn1 [Compound A-139]
23,3000,CSc1nc(NCc2ccc(-c3ccnc(C)c3)cc2)cc(-c2ccc3ccccc3c2)n1 [Compound A-140]
